Key:
[1] = test system: PC-3, DU-145, LNCaP, T47D, MB-MDA-468 and OVCAR-3 cells; assay: Anoikis of additional malignant cell lines: colony formation after suspension culture; assay type: cell-based
Protocol: (§1) FIG. 14. Tumor cell sensitivity to anoikis correlates with sensitivity to Fas-mediated apoptosis. PC-3, DU-145, and LNCaP prostate, T47D and MB-MDA-468 breast, and OVCAR-3 ovarian cancer cells were cultured under adherent conditions with increasing concentrations of 5809354, in the presence or absence of Fas-activating antibody (CH-11, 100 ng/mL). Thirty hours after incubation, cell viability was determined using the MTS assay. Cell lines were also cultured under suspension conditions in the presence or absence of 5809354. Thirty hours after incubation, equal volumes of suspension-cultured cells were replated in a colony formation assay. Data represents the mean±SEM percent of viable cells or colonies compared to untreated controls.
(§2) Cell viability apoptosis, colony formation, and caspase activation assays. Cell viability was assessed using the MTS reduction assay (Promega, Madison, Wis., USA) according to the manufacturer's protocols and as described in Schimmer et al. (2006). Apoptosis was measured by flow cytometry to detect cell surface annexin V expression and propidium iodide (PI) uptake (Biovision, Mountain View, Calif., USA) as described in Carter et al. (2005). […] Clonogenic growth after suspension culture was measured using colony formation assays. […] Colonies were fixed, stained with methylene blue, and counted. […]

[2] = test system: PC-3, DU-145, LNCaP, T47D, MB-MDA-468 and OVCAR-3 cells; assay: MTS viability of additional malignant cell lines under adherent conditions with or without CH-11; assay type: cell-based
Protocol: as §1, §2

[3] = test system: caspase 8; assay: Caspase activation in PPC-1 cells (FITC-labeled peptides, caspase 8 immunoblot); assay type: cell-based, human; details: 60 μM
Protocol: FIG. 15. 5809354 sensitizes cells to anoikis through a caspase 8 dependent mechanism. (A) PPC-1 cells (5×10^4) were cultured under suspension conditions overnight and then treated with 5809354 in the presence or absence of the pan-caspase inhibitor z-VAD-fink (100 μM). Thirty hours after incubation, anoikis was determined by flow cytometry to detect cell surface annexin V expression and PI uptake. Data represents the mean±SEM percent of viable cells or colonies compared to untreated controls. (B) PPC-1 cells (5×10^4) were cultured in suspension conditions overnight and then treated with 5809354 (60 μM). At increasing times after treatment, caspase activation was detected with FITC-labeled peptides that bind preferentially and irreversibly to caspase 3/7, 8, or 9. Caspase activation was monitored by flow cytometry to quantify the percentage of fluorescently labeled cells. […] At increasing times after incubation, total cellular protein was isolated and analyzed by SDS-PAGE immunoblotting using anti-caspase 8 and anti-actin antibodies. * indicates cleaved caspase 8. […] Thirty hours after incubation, apoptosis was measured by cell surface annexin V expression and PI uptake. […] Ten hours after incubation, cell viability was measured using the MTS assay. […] EGFP expression and nuclear morphology were analyzed by fluorescence microscopy. […]

With “4-(4-chloro-2-methylphenoxy)-N-hydroxybutanamide [compound 5809354]” the sensitization to anoikis ([1]; LNCaP or MB-MDA-468 cells) was “did not sensitize”, the sensitization to anoikis ([1]; PC-3 and DU-145 prostate, T47D breast and OVCAR-3 ovarian cancer cell lines) was “sensitized” and the “sensitization to CH-11” value ([2]; LNCaP or MB-MDA-468 cells) was “did not sensitize”. For the same substance, the “sensitization to CH-11-induced apoptosis” value ([2]; PC-3, DU-145, T47D and OVCAR-3 cell lines, CH-11 100 ng/mL) was “sensitized”, the “sequence of caspase activation” value ([3]; suspension conditions) was “Active caspase 8 was detected prior to activation of caspases 3/7 and 9” and the “caspase 8 activation by immunoblot” value ([3]; suspension versus adherent conditions) was “preferentially activated caspase 8 in cells cultured under suspension but not adherent conditions”.
